The text below walks through data of PMC7955776 (Investigational new drugs, 2020).

The test system of series [1] is metastatic TNBC. Conditions: in combination with first line docetaxel, metastatic TNBC patients; cited from earlier work.
For series [2] the following is noted: human, in vivo, iv, 80 mg/m2.
A short description of series [3]: clinical. Conditions: human, in vivo, iv, 80 mg/m2.
The nature of series [4]: Paclitaxel plasma pharmacokinetics alone and in combination with RO4929097. As to conditions: 80 mg/m2 IV.

The structures appear in SMILES notation.

With `CCC[C@H](N[C@H]1CCc2cc(F)cc(F)c2C1)C(=O)Nc1cn(C(C)(C)CNCC(C)(C)C)cn1` [PF-03084014], in series [1], the Partial response is reported as 16% and the Stable disease is 36%.

`CC(=O)O[C@H]1C(=O)[C@@]2(C)[C@H]([C@H](OC(=O)c3ccccc3)[C@]3(O)C[C@H](OC(=O)[C@H](O)[C@@H](NC(=O)c4ccccc4)c4ccccc4)C(C)=C1C3(C)C)[C@]1(OC(C)=O)CO[C@@H]1C[C@@H]2O` [Paclitaxel, paclitaxel]: in series [2], the “AUC INF” value was 4911 ± 1078 ng·h/mL and the Half life was 11.3 ± 2.5 h. For the same compound, in series [3], the AUC(0-inf) – broadly, total exposure, with the tail of the curve extrapolated – was found to be 4800 ± 1170 ng·h/mL and the half-life (usually the time in which the quantity being followed falls by half) is 10.3 ± 2.5 h. Moreover, the “Paclitaxel PK alone (day -1) versus in combination with RO4929097 (day 15)” value in series [4] is given as “No significant differences”.
